Results: ChEMBL document CHEMBL1136831, “CRF ligands via Suzuki and Negishi couplings of 3-pyridyl boronic acids or halides with 2-benzyloxy-4-chloro-3-nitropyridine” (Bioorg Med Chem Lett, 2003)

Biological target: Corticotropin releasing factor receptor (Rattus norvegicus, UniProt P47866+P35353)
Experiment: Binding affinity at Corticotropin releasing factor receptor of rat cortical homogenates.

Compound	Ki
CCCC(C)n1c(CC)nc2c(-c3ccc(O)nc3C(F)(F)F)ccnc21 (stereo not drawn)	602 nM
CCc1nc2c(-c3ccc(OC)cc3C)ncnc2n1C(C1CC1)C1CC1	1.9 nM
CCc1nc2c(-c3ccc(OC)nc3C)ccnc2n1C(C)C1CC1 (stereo not drawn)	2 nM
CCc1nc2c(-c3ccc(OC)cc3C)ccnc2n1C(CC)C1CC1 (stereo not drawn)	0.5 nM
CCCC(C)n1c(CC)nc2c(-c3ccc(Cl)nc3C)ccnc21 (stereo not drawn)	6.6 nM
CCCC(C)n1c(CC)nc2c(-c3ccc(OCCO)nc3C(F)(F)F)ccnc21 (stereo not drawn)	10.1 nM
CCc1nc2c(-c3ccc(N(C)C)nc3C)ccnc2n1C(CC)C1CC1 (stereo not drawn)	7.5 nM
CCc1nc2c(-c3ccc(Cl)nc3C)ccnc2n1C(CC)C1CC1 (stereo not drawn)	3.3 nM
CCc1nc2c(-c3ccc(OC)nc3C)ccnc2n1C(C)C1CCC1 (stereo not drawn)	2.1 nM
CCCC(C)n1c(CC)nc2c(-c3ccc(O)nc3C)ccnc21 (stereo not drawn)	> 10000 nM
CCc1nc2c(-c3ccc(OC)nc3C(F)(F)F)ccnc2n1C(C)CC (stereo not drawn)	0.7 nM
CCc1nc2c(-c3ccc(OC)nc3C(F)(F)F)ccnc2n1C(CC)CCOC (stereo not drawn)	1.6 nM
CCc1nc2c(-c3ccc(OC)nc3C)ccnc2n1C(C)CC (stereo not drawn)	9.2 nM
CCc1nc2c(-c3ccc(OC)nc3C(F)(F)F)ccnc2n1C(CC)C1CC1 (stereo not drawn)	0.7 nM
CCc1nc2c(-c3ccc(OC)nc3C(F)(F)F)ccnc2n1C(C)C1CCC1 (stereo not drawn)	0.8 nM
CCCC(C)n1c(CC)nc2c(-c3cnc(OC)cc3C)ccnc21 (stereo not drawn)	17.1 nM
CCCC(C)n1c(CC)nc2c(-c3ccc(OC)nc3C)ccnc21 (stereo not drawn)	1.1 nM
CCc1nc2c(-c3ccc(OC)nc3C)ncnc2n1C(C1CC1)C1CC1	1.8 nM
